# Measured values published in patent US20260138961A1, “MODULATORS OF MITOCHONDRIAL DNA REPLICATION” (Pretzel Therapeutics, Inc., priority 2022, published 2026).
# Target: T1, POLγA:Y955C (Homo sapiens, UniProt P54098, Y955C)
# T1 sequence (P54098 1-1239 Y955C): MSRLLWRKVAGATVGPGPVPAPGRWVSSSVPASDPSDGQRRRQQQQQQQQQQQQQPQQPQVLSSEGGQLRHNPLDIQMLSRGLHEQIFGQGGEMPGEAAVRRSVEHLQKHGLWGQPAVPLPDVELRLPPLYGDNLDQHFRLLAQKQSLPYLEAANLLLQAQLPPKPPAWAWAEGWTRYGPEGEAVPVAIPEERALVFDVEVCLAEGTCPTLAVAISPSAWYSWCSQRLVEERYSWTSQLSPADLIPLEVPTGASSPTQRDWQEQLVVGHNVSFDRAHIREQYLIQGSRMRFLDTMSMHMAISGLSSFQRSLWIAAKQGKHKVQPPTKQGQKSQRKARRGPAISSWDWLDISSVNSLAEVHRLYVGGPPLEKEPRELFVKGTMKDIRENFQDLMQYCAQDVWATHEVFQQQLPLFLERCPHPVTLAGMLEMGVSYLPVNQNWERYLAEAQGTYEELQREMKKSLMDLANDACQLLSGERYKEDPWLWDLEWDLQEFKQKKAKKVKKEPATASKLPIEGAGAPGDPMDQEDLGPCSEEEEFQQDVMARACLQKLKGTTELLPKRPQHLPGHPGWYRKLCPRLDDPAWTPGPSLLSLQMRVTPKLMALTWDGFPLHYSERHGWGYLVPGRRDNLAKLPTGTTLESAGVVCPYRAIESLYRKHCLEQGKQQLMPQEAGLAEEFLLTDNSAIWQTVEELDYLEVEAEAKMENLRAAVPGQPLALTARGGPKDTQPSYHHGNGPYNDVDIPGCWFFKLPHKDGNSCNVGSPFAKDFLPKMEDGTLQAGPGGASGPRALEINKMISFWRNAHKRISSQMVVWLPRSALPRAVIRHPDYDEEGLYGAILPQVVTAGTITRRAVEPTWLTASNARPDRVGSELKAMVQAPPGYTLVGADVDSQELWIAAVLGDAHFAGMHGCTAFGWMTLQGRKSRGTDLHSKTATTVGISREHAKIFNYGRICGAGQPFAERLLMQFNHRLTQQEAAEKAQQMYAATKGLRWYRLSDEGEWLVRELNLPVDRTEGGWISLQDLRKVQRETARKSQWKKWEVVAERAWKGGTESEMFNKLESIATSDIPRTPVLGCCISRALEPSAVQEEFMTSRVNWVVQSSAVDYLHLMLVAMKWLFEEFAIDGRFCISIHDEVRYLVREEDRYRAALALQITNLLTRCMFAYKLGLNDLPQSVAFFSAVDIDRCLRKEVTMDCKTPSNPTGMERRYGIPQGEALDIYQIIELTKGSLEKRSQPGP
# T1 sequence (Q9UHN1 1-485 partner): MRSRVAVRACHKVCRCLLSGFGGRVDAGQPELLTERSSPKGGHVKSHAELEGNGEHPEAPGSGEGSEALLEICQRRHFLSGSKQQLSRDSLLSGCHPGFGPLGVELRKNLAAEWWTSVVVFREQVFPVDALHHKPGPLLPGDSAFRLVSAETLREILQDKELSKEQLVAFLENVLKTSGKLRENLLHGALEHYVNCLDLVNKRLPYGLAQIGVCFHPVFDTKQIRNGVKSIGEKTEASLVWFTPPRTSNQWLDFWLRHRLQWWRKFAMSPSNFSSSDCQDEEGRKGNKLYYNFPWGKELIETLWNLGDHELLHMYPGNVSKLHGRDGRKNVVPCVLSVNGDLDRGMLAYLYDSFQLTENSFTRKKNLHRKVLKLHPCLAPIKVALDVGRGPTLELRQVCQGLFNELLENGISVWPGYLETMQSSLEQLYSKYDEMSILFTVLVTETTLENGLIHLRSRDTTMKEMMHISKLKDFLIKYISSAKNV
# Experiment: DNA polymerization assay, POLγA:Y955C mutant
# Format: biochemical
# Conditions: stimulation of polymerase activity, primed M13mp18 ssDNA, 37° C. 2 hours
# Protocol: DNA Polymerization Assay to Monitor Effects on Human Wildtype POLγ and Four Disease-Causing Mutant Variants of Human POLγ.
# The ability of small molecules to stimulate the polymerase activity of POLγ was analyzed in a quantitative fluorescence SYBR Green I assay with fluorescence intensity (FI) readout.
# In the presence of dNTPs, wild type human POLγ and mutant derivatives thereof were incubated with single-stranded, circular M13mp18 ssDNA hybridized to a short DNA oligonucleotide that functions as a primer for initiation of DNA synthesis. POLγ and mutant derivatives thereof will extend the primer and use the M13mp18 molecule as a template to synthesize long stretches of double-stranded DNA. SYBR Green I, which is a double-stranded DNA-binding dye, was used to quantify formation of double-stranded DNA in the reaction. When bound to double-stranded DNA, SYBR Green I fluorescence increases by up to 100-fold.
# The assay was performed in the 384-well plate format. Upon addition of compounds, changes in double-stranded DNA synthesis activity can be monitored by following effects on fluorescent intensity.
# The reactions also contained the accessory POLγB subunit, and the human mitochondrial single-stranded DNA binding protein (mtSSB).
# The DNA template mixture used in the assay contained 0.5 nM primed M13 mp18 ssDNA, 400 nM mtSSB, 0.1 mM Tris-HCl (pH 8.0), 0.1 mM dNTP, 10 mM MgCl2, 0.1 mg/mL BSA, 1 mM TCEP solution, and 0.02% Triton X-100. The DNA template mixture for the wild type protein contained either 100 μM dNTP, 1 μM dNTP, or 0.1 μM dNTP, designated in Table 2 as 100 μM, 1 μM, and 0.1 μM, respectfully.
# Microplates with compounds (0.1 μL in each well) to be tested in the assay were prepared from 10 mM compound stocks in 100% DMSO, and equal amounts of DMSO without any compound were added to positive and negative control wells.
# The protein mixture was dispensed (5 μL into each well) into compound plates and incubated at 37° C. for 15 minutes. After incubation, 5 μL of the DNA template mixture was dispensed into each well. The plates were then incubated at 37° C. for 2 hours.
# During incubation, a combined stop buffer and detection reagent solution was prepared. The buffer contained 25 mM EDTA (pH 8.0), 0.02% Triton X-100, and SYBR Green I [Invitrogen] diluted 10,000× (for fluorescent readout). EDTA will stop the enzymatic reaction by chelating magnesium ions.
row,SMILES,AC50 [nM]
1,"Cc1cc(S(=O)(=O)Nc2ccc3ccn(C)c3c2)c(C)cc1Cl [Example 72, 4-chloro-2,5-dimethyl-N-(1-methyl-1H-indol-6-yl)benzenesulfonamide]",6000
2,"Cc1nc2ccc(NS(=O)(=O)c3cc(C)c(Cl)cc3C)cc2s1 [Example 73, 4-chloro-2,5-dimethyl-N-(2-methylbenzo[d]thiazol-6-yl)benzenesulfonamide]",800
3,"Cc1cc(S(=O)(=O)Nc2cccc(-c3ncc(C4CC4)s3)c2)c(C)cc1Cl [Example 76, 4-chloro-N-(3-(5-cyclopropylthiazol-2-yl)phenyl)-2,5-dimethylbenzenesulfonamide]",2000
4,"Cc1csc(-c2ccccc2NS(=O)(=O)c2cc(C)c(Cl)cc2C)n1 [Example 80, 4-chloro-2,5-dimethyl-N-(2-(4-methylthiazol-2-yl)phenyl)benzenesulfonamide]",> 100000
5,"Cc1cc(S(=O)(=O)Nc2csc(-c3ccccc3)n2)c(C)cc1Cl [Example 81, 4-chloro-2,5-dimethyl-N-(2-phenylthiazol-4-yl)benzenesulfonamide]",200
6,"Cc1cc(S(=O)(=O)Nc2cccc(-c3ncc(CN(C)C)s3)c2)c(C)cc1Cl [Example 87, 4-chloro-N-(3-(5-((dimethylamino)methyl)thiazol-2-yl)phenyl)-2,5-dimethylbenzenesulfonamide]",6000
7,"Cc1cc(S(=O)(=O)Nc2cccc(-c3ncc(CO)s3)c2)c(C)cc1Cl [Example 89, 4-chloro-N-(3-(5-(hydroxymethyl)thiazol-2-yl)phenyl)-2,5-dimethylbenzenesulfonamide]",100
